Data set [1] deals with MiaPaCa2 pancreatic cancer cell line. Kind of data set: CellTiter-Glo IC50 (Example 19). It is filed as cell-based. The settings on record: Homo sapiens, MIA PaCa-2, 72 h. The method in brief:
(§1)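 Cells were seeded at 1000 cells/well and kept at 37 °C, 5% CO2. After compound treatment, viability was read by CellTiter-Glo luminescence as % of untreated control. IC50 came from a non-linear log(inhibitor) vs response fit with variable slope.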

In data set [2] the test system is H520 lung carcinoma cell line. Kind of data set: CellTiter-Glo IC50 (Example 19). It is filed as cell-based. The settings on record: Homo sapiens, NCI-H520, 72 h. The method in brief:
as §1
In general terms: In ATP-based viability assays light output follows the ATP content of the culture.

The subject of data set [3] is BxPC3 pancreatic cancer cell line. Description: CellTiter-Glo IC50 (Example 19). It is filed as cell-based. The settings on record: Homo sapiens, BXPC-3, 72 h. In a few lines:
as §1

The test system of data set [4] is PC3 human prostate cancer cell line. Description: CellTiter-Glo IC50 (Example 19). It is filed as cell-based. The settings on record: 72 h. In a few lines: as §1
In data set [5] the test system is LNCap human prostate cancer cell line. Kind of data set: CellTiter-Glo IC50 (Example 19). Type of data set: cell-based. Conditions: 72 h. In a few lines:
as §1

Data set [6] concerns A549 lung carcinoma cell line. Kind of data set: CellTiter-Glo IC50 (Example 19). The settings on record: Homo sapiens, 72 h. Type of data set: cell-based. The method in brief:
as §1

For data set [7], the system named is HCC827 lung carcinoma cell line. Description: CellTiter-Glo IC50 (Example 19). It is filed as cell-based. The settings on record: Homo sapiens, 72 h. The method in brief: as §1
For data set [8], the system named is H1993 lung carcinoma cell line. Kind of data set: CellTiter-Glo IC50 (Example 19). It is filed as cell-based. The settings on record: Homo sapiens, NCI-H1993, 72 h. In a few lines:
as §1

Data set [9] concerns EBC-1 lung cancer cell line. Kind of data set: High-throughput screening, CellTiter-Glo cell viability assay at 100 nM. Conditions: Homo sapiens, EBC-1, HTS, compounds at 100 nM, 72 h, read-out: cytotoxicity expressed in IC50, EBC-1 (results of High throughput screening). It is filed as cell-based, human.
In data set [10] the test system is H2228 lung cancer cell line. Described as above. Type of data set: cell-based, human. Conditions: Homo sapiens, NCI-H2228, HTS, compounds at 100 nM, 72 h, read-out: cytotoxicity expressed in IC50, H2228 (results of High throughput screening).
Data set [11] concerns representative cell lines. Kind of data set: Cytotoxicity on representative cell lines (summary statement). Type of data set: cell-based. Conditions: Homo sapiens; summary range, ca.
Data set [12] deals with MDA-MB-231 breast cancer cell line. Description: CellTiter-Glo IC50 (Table 3). It is filed as cell-based. The settings on record: Homo sapiens. How it is done:
(§2) Some representative imipridones and ONC212 as reference were further tested on the following human malignant cell lines: PC3 and LNCap (prostate carcinoma); BxPC3, MiaPaCa2 and Panc1 (pancreatic cancer); A549, HCC827, H1993 and H520 (lung carcinoma); MDA-MB-453 and MDA-MB-231 (breast cancer) (see Table 2 and FIGS. 1-11).
(§3) Cell lines were maintained according to the instructions provided by ATCC (https://www.lgcstandards-atcc.org/) in a 5% CO2 humidified incubator maintained at 37° C. temperature. Effects of compounds on cell viability were measured via CellTiter-Glo® luminescent cell viability assay (Promega, Madison, WI, USA) Cells were plated at 1000 cells/well onto a flat-bottomed, white 96 well plate (BRANDplates, cat. no.: 781965). […] After the treatment, medium was removed and CellTiter-Glo® reagent was added. The luminescence signal was recorded using a microplate reader (BioTek Synergy 2 Multi-Mode Reader, BioTek, Winooski, VT, USA).
(§4) Cell viability data (% of untreated control cells) was evaluated with Microsoft Excel. Dose-response curves (using a non-linear regression model, log (inhibitor) vs response, variable slope) were generated and IC50 values were determined using Graph Pad Prism 5.02 software (GraphPad Software, San Diego, CA, USA).

In data set [13] the test system is MDA-MB-453 breast cancer cell line. Description: CellTiter-Glo IC50 (Table 3). It is filed as cell-based. Conditions: Homo sapiens. How it is done: as §2, §3, §4
Data set [14] relates to A2058 (human metastatic melanoma) cells. Description: Colorimetric alamarBlue assay, long treatment. Conditions: Homo sapiens, A2058, 72 h, read-out: cytotoxicity expressed in IC50, A-2058. In general terms: Alamar Blue is a resazurin reagent that responds to reducing activity.
Data set [15] deals with COLO-205 (human colorectal adenocarcinoma) cells. Description: Colorimetric alamarBlue assay, long treatment. Conditions: COLO 205, 72 h, read-out: cytotoxicity expressed in IC50, COLO-205.

Structures are written as SMILES.

`O=C1C2=C(CCN(Cc3cc(F)cc(F)c3)C2)N2CCN=C2N1Cc1ccc(F)cc1` [I/7, 4-(4-Fluorobenzyl)-7-(3,5-difluorobenzyl)-2,4,6,7,8,9-hexahydroimidazo[1,2-a]pyrido[3,4-e]pyrimidin-5(1H)-one]: the melting point (in general, the temperature, or range, at which the solid turns liquid) was determined as 190.5 °C. Further, the half-maximal inhibitory concentration (IC50) (usually the concentration at which inhibition is half-maximal) in data set [1] turned out to be 11 nM. In addition, the IC50 in [2] is 7 nM. For the same compound, the IC50 in data set [3] was found to be 12 nM. Besides, the IC50 in data set [4] worked out at 9 nM. Further, in data set [5], the IC50 stood at 5 nM. Besides, the half-inhibitory concentration (IC50) in data set [6] is 8 nM. In data set [7], the IC50 came to 13 nM. In addition, in [8], the half-maximal inhibitory concentration (IC50) turned out to be 10 nM. Moreover, in data set [9], the half-inhibitory concentration (IC50) was below 100 nM. In data set [10], the IC50 was below 100 nM. Further, the IC50 in data set [11] was 3 to 8 nM. Further, the half-inhibitory concentration (IC50) in data set [12] came out at 2 nM. The concentration for half-maximal inhibition (IC50) in [13] came out at 1 nM.
For the compound `O=C1C2=C(CCN(Cc3ccccc3)C2)N2CCN=C2N1Cc1ccc(C(F)(F)F)cc1` [I/1, reference compound], the IC50 worked out at 76 nM in data set [1]; 73 nM in data set [2]; 110 nM in data set [3]; 80 nM in data set [4]; 52 nM in data set [5]; 60 nM in data set [6]. In addition, the IC50 in data set [7] was 105 nM; in data set [8] it was 90 nM; in [9] it was below 100 nM; in data set [10], above 100 nM; in data set [14], above 10000 nM; in [12] it was 24 nM. In addition, the IC50 in data set [13] turned out to be 16 nM; in data set [15], 250 nM.
On to `O=C1C2=C(CCN(Cc3cc(F)cc(F)c3)C2)N2CCN=C2N1Cc1ccc(C(F)(F)F)cc1` [I/30, 7-(3,5-Difluorobenzyl)-4-(4-(trifluoromethyl)benzyl)-2,4,6,7,8,9-hexahydroimidazo[1,2-a]pyrido[3,4-e]pyrimidin-5(1H)-one], for which the melting point stood at 168 °C. Further, in [1], the half-maximal inhibitory concentration (IC50) came out at 3 nM. Moreover, in [2], the half-inhibitory concentration (IC50) is 3 nM. Besides, the IC50 in data set [3] stood at 4 nM. The half-maximal inhibitory concentration (IC50) in data set [4] came to 2 nM. Further, the IC50 in data set [5] was found to be 2 nM. The IC50 in data set [6] came to 4 nM. Besides, in data set [7], the concentration for half-maximal inhibition (IC50) turned out to be 5 nM. The IC50 in data set [8] came out at 4 nM. The IC50 in data set [9] is below 100 nM. Further, the IC50 in [10] is below 100 nM. In data set [11], this compound showed an IC50 of 3 to 8 nM. Further, in data set [12], the IC50 was below 1 nM. The IC50 in data set [13] was below 1 nM.
Regarding `[N-]=[N+]=Nc1ccc(CN2C(=O)C3=C(CCN(Cc4cc(F)cc(F)c4)C3)N3CCN=C23)cc1` [I/107, 4-(4-Azidobenzyl)-7-(3,5-difluorobenzyl)-2,4,6,7,8,9-hexahydroimidazo[1,2-a]pyrido[3,4-e]pyrimidin-5(1H)-one], the melting point came to 155.5 °C. Moreover, in [1], the half-maximal inhibitory concentration (IC50) was 16 nM. Also, the half-inhibitory concentration (IC50) in data set [2] was found to be 8 nM. Besides, the IC50 in data set [3] was 14 nM. Besides, in data set [4], the half-inhibitory concentration (IC50) was 11 nM. Besides, the IC50 in data set [5] is 5 nM. Besides, in data set [6], the IC50 was determined as 16 nM. In addition, the half-inhibitory concentration (IC50) in data set [7] turned out to be 15 nM. The half-inhibitory concentration (IC50) in data set [8] amounted to 12 nM. In addition, the IC50 in [9] was below 100 nM. Also, the IC50 in data set [10] is below 100 nM. The IC50 in [12] stood at 3 nM. Moreover, in [13], the IC50 was 2 nM.
Take `O=C1C2=C(CCN(Cc3cccc(F)c3)C2)N2CCN=C2N1Cc1ccc(C(F)(F)F)cc1` [I/3, reference compound]: the 50% inhibitory concentration (IC50) in data set [9] is below 100 nM; in data set [10], below 100 nM; in data set [14], above 10000 nM; in data set [15], above 10000 nM.
The compound `O=C1C2=C(CCN(Cc3cc(F)cc(F)c3)C2)N2CCN=C2N1Cc1ccc(Cl)cc1` [I/124, 4-(4-Chlorobenzyl)-7-(3,5-difluorobenzyl)-2,4,6,7,8,9-hexahydroimidazo[1,2-a]pyrido[3,4-e]pyrimidin-5(1H)-one] gave a melting point of 162.4 °C.
For `[N-]=[N+]=Nc1cccc(CN2CCC3=C(C2)C(=O)N(Cc2ccc(C(F)(F)F)cc2)C2=NCCN23)c1` [I/111, 7-(3-Azidobenzyl)-4-(4-(trifluoromethyl)benzyl)-2,4,6,7,8,9-hexahydroimidazo[1,2-a]pyrido[3,4-e]pyrimidin-5(1H)-one], the melting point was determined as 128.8 °C. Besides, the half-maximal inhibitory concentration (IC50) in data set [1] was found to be 10 nM. Also, the IC50 in data set [2] came to 6 nM. The half-maximal inhibitory concentration (IC50) in [3] came out at 13 nM. Besides, the IC50 in data set [4] amounted to 7 nM. The 50% inhibitory concentration (IC50) in data set [5] was found to be 5 nM. Also, the IC50 in data set [6] is 8 nM. In data set [7], the IC50 was found to be 12 nM. Moreover, the half-inhibitory concentration (IC50) in data set [8] came to 6 nM. Further, the half-maximal inhibitory concentration (IC50) in data set [9] was below 100 nM. Further, the concentration for half-maximal inhibition (IC50) in data set [10] was below 100 nM. In addition, in data set [12], the IC50 came out at 1 nM. Besides, in data set [13], the IC50 was below 1 nM.

Values taken from patent publication US20230295162A1 (EÖTVÖS LORÁND TUDOMÁNYEGYETEM, priority 2020, published 2023).
